Measured values published in patent publication US20250304623A1, “PEPTIDES FOR INTRACELLULAR DELIVERY” (UNIVERSIDADE DE SANTIAGO DE COMPOSTELA, priority 2022, published 2025).
*: point of attachment. NHNH2 = NN*

What was measured:
[1] = test system: A549 cells expressing EGFP; assay: Cas9-RNP delivery against EGFP (gene editing, plate reader), A549; format: cell-based; details: A549 cells
Protocol: To generate an EGFP expressing HeLa cell line, HeLa cells were transfected with EGFP pDNA (pEGFP-C1, Clontech) and stable transfectants were selected with 400 μg/mL of G-418 (Millipore). Green clones were selected by epifluorescence microscopy and tested for EGFP expression stability through several passages. […] All other EGFP-expressing cell lines were obtained in a similar way from parent non-EGFP-expressing cell lines.
Cells expressing EGFP were seeded in a 96 well plate the day before the experiment at a concentration of 50,000 cell/mL (100 μL/w) in DMEM+10% FBS+1% Gln-Abt. For robotic library screening, the delivery of Cas9-RNP against EGFP (RNP designed to knock-out the gene encoding for the enhanced green fluorescent protein (EGFP)) was performed. For RNP assembly, 9.2 μL of crRNA and 9.2 μL of tracrRNA were mixed in 211.6 μL of Nuclease-Free Duplex Buffer (IDT), incubated for 5 min at 95° C. and slowly cooled at rt (see I. Lostalé-Seijo, et al. Peptide/Cas9 nanostructures for ribonucleoprotein cell membrane transport and gene edition, Chem. Sci., 2017). Cas9 protein was dissolved in DMEM at a final concentration of 4 μM and equal volumes of the RNA complex and Cas9 were mixed and incubated for 5 min at rt. 75 μL of the corresponding amphiphile concentrations were added to 5 μL of RNP at 2 μM. The mixture was shaken for 30 min at room temperature before the addition to the cells. The cell medium was aspirated, and cells were washed twice with PBS. Cells were covered with 30 μL of DMEM and 20 μL of the RNP/amphiphile complexes were added to the cells (final peptide concentrations=2.5, 5 and 10 μM; final Cas9-RNP concentration=50 nM) and incubated for 4 h. After the incubation, the medium was replaced by 100 μL of fresh DMEM supplemented with 10% FBS. The total EGFP fluorescence was quantified after 72 h in a plate reader (FIG. 2, Table 1 (right) and Table 6). All experiments were done in triplicate.
(§1) Tables 1-7: RLuc (pDNA) or EGFP (mRNA) expression levels were normalized to Lipofectamine reagents (value=1) and expressed as fold-times signal increase. In the case of siRNA, the siRNA treated cells fluorescence was compared with siMOCK control fluorescence, while Cas9-RNP mediated knockout was measured against the fluorescence of untreated cells. In both siRNA and Cas9-RNP, values are expressed as % fluorescence reduction. Amphiphile concentration was 5 μM in all cases. All experiments were performed in triplicate.
Tables 26-31 show the mean (triplicates) percentage of gene editing, accounted by GFP fluorescence intensity decrease (% of reduction), measured after the transfection of Cas9-RNP by different amphiphiles at different concentrations in a variety of cell lines. Background values, accounted by untreated control cells, were subtracted for processing.

[2] = test system: A549 cells; assay: EGFP mRNA delivery, robotic library screening, A549; format: cell-based
Protocol: Cells were seeded in a 96 well plate the day before the experiment at a concentration of 50,000 cell/mL (100 μL/w) in DMEM+10% FBS+1% Gln-Abt. For robotic library screening, the delivery of EGFP-mRNA (from TriLink, fully substituted with 5-methoxyuridine, capped and polyadenylated; TriLink, CleanCap® EGFP mRNA (5moU), ref. L-7201) in six different cell lines was performed. Amphiphilic molecule stock solutions were prepared in DMSO as described above and diluted in DMEM to afford a range of concentrations. The solutions of EGFP-mRNA/amphiphilic molecule complexes were freshly prepared prior to the transfection experiments. 35 μL of the corresponding amphiphile were added to 10 μL of a solution of EGFP-mRNA at 10 ng/μL in DMEM. The mixture was shaken for 30 min at room temperature before the addition to the cells. The cell medium was aspirated, and cells were washed with PBS twice. Cells were covered with 39 μL of DMEM and 11 μL of the complex's solution were added to the cells and incubated for 4 h (final concentration of peptide=2.5, 5 and 10 μM; final concentration of EGFP-mRNA=25 ng/well). After the incubation, the medium was replaced by 100 μL of fresh DMEM supplemented with 10% FBS. The total EGFP fluorescence was quantified after 72 h in a well plate reader. Amphiphile transfection efficiency was compared and normalized to Lipofectamine® MessengerMax efficiency (value of 1 in Tables 1-5 and 7; double underlined numbers). All experiments were done in triplicate.
as §1
Tables 14-19 show the mean (triplicates) fluorescence intensity measured after the transfection of EGFP mRNA by different amphiphiles at different concentrations in a variety of cell lines. Background fluorescence values, accounted by untreated control cells, were subtracted for processing.

Substance: Ac-RHLK*RLK*RRLK*RL-NH2 (Ac-RHLKRLKRRLKRL-NH2; not fully specified (residues 4, 7, 11); printed as Ac-RHLK*RLK*RRLK*RL-NH2; also: linker on K* not given here) [13(Arg-His)]
- percentage of gene editing, GFP fluorescence intensity decrease (% of reduction) ([1]; Dodecanal, 5 μM): 27%
- percentage of gene editing, GFP fluorescence intensity decrease (% of reduction) ([1]; Dodecanal, 10 μM): 18%
- percentage of gene editing, GFP fluorescence intensity decrease (% of reduction) ([1]; Myristoleyl, 5 μM): 5%
- percentage of gene editing, GFP fluorescence intensity decrease (% of reduction) ([1]; Myristoleyl, 10 μM): 9%
- percentage of gene editing, GFP fluorescence intensity decrease (% of reduction) ([1]; Oleyl, 5 μM): 20%
- percentage of gene editing, GFP fluorescence intensity decrease (% of reduction) ([1]; Oleyl, 15 μM): 15%
- percentage of gene editing, GFP fluorescence intensity decrease (% of reduction) ([1]; Palmitoleyl, 5 μM): 15%
- percentage of gene editing, GFP fluorescence intensity decrease (% of reduction) ([1]; Palmitoleyl, 10 μM): 10%
- percentage of gene editing, GFP fluorescence intensity decrease (% of reduction) ([1]; Palmitoleyl, 15 μM): 22%
- percentage of gene editing, GFP fluorescence intensity decrease (% of reduction) ([1]; Petroselinyl, 5 μM): 29%
- mean fluorescence intensity (EGFP mRNA) ([2]; Dodecanal, 2.5 μM): 626
- mean fluorescence intensity (EGFP mRNA) ([2]; Myristoleyl, 2.5 μM): 392
- mean fluorescence intensity (EGFP mRNA) ([2]; Oleyl, 2.5 μM): 886
- mean fluorescence intensity (EGFP mRNA) ([2]; Oleyl, 5 μM): 719
- mean fluorescence intensity (EGFP mRNA) ([2]; Oleyl, 10 μM): 386
- mean fluorescence intensity (EGFP mRNA) ([2]; Palmitoleyl, 2.5 μM): 1177
- mean fluorescence intensity (EGFP mRNA) ([2]; Palmitoleyl, 5 μM): 348
- mean fluorescence intensity (EGFP mRNA) ([2]; Palmitoleyl, 10 μM): 437
- mean fluorescence intensity (EGFP mRNA) ([2]; Petroselinyl, 2.5 μM): 652
- mean fluorescence intensity (EGFP mRNA) ([2]; Petroselinyl, 5 μM): 306
- mean fluorescence intensity (EGFP mRNA) ([2]; Petroselinyl, 10 μM): 151

Substance: Ac-RK*LRK*K*L-NH2 (Ac-RK(NHNH2)LRK(NHNH2)K(NHNH2)L-NH2; not fully specified; printed as Ac-RK*LRK*K*L-NH2; also: K*2,K*5,K*6: native or modified lysine (ε-amide to a linker)) [Peptide 7.3]
- percentage of gene editing, GFP fluorescence intensity decrease (% of reduction) ([1]; Dodecanal, 10 μM): −2%
- percentage of gene editing, GFP fluorescence intensity decrease (% of reduction) ([1]; Dodecanal, 15 μM): 1%
- percentage of gene editing, GFP fluorescence intensity decrease (% of reduction) ([1]; Myristoleyl, 5 μM): 7%
- percentage of gene editing, GFP fluorescence intensity decrease (% of reduction) ([1]; Myristoleyl, 10 μM): 10%
- percentage of gene editing, GFP fluorescence intensity decrease (% of reduction) ([1]; Myristoleyl, 15 μM): 12%
- percentage of gene editing, GFP fluorescence intensity decrease (% of reduction) ([1]; Oleyl, 5 μM): −9%
- percentage of gene editing, GFP fluorescence intensity decrease (% of reduction) ([1]; Oleyl, 15 μM): −1%
- percentage of gene editing, GFP fluorescence intensity decrease (% of reduction) ([1]; Palmitoleyl, 5 μM): 27%
- percentage of gene editing, GFP fluorescence intensity decrease (% of reduction) ([1]; Palmitoleyl, 10 μM): 33%
- percentage of gene editing, GFP fluorescence intensity decrease (% of reduction) ([1]; Palmitoleyl, 15 μM): 13%
- percentage of gene editing, GFP fluorescence intensity decrease (% of reduction) ([1]; Petroselinyl, 5 μM): 23%
- percentage of gene editing, GFP fluorescence intensity decrease (% of reduction) ([1]; Petroselinyl, 10 μM): 22%
- percentage of gene editing, GFP fluorescence intensity decrease (% of reduction) ([1]; Petroselinyl, 15 μM): 7%
- mean fluorescence intensity (EGFP mRNA) ([2]; Dodecanal, 2.5 μM): 2894
- mean fluorescence intensity (EGFP mRNA) ([2]; Dodecanal, 5 μM): 4662
- mean fluorescence intensity (EGFP mRNA) ([2]; Dodecanal, 10 μM): 248
- mean fluorescence intensity (EGFP mRNA) ([2]; Myristoleyl, 2.5 μM): 4491
- mean fluorescence intensity (EGFP mRNA) ([2]; Myristoleyl, 5 μM): 5378
- mean fluorescence intensity (EGFP mRNA) ([2]; Myristoleyl, 10 μM): 228
- mean fluorescence intensity (EGFP mRNA) ([2]; Oleyl, 2.5 μM): 218
- mean fluorescence intensity (EGFP mRNA) ([2]; Oleyl, 5 μM): 1205
- mean fluorescence intensity (EGFP mRNA) ([2]; Oleyl, 10 μM): 1046
- mean fluorescence intensity (EGFP mRNA) ([2]; Palmitoleyl, 2.5 μM): 2134
- mean fluorescence intensity (EGFP mRNA) ([2]; Palmitoleyl, 5 μM): 3484
- mean fluorescence intensity (EGFP mRNA) ([2]; Petroselinyl, 2.5 μM): 1317
- mean fluorescence intensity (EGFP mRNA) ([2]; Petroselinyl, 5 μM): 6947
- mean fluorescence intensity (EGFP mRNA) ([2]; Petroselinyl, 10 μM): 641
